Tests used:
Assay type in all cases: biochemical
PKR-R510Q [1] = target: T1, PKR-R510Q (Homo sapiens, UniProt P30613, R510Q); assay: Enzyme assay, kinetic parameters (Vmax, PEP Km)
Protocol: (§1) Tests were conducted in the presence and absence of fructose-1,6-bisphosphate (FBP), a known allosteric activator of PKR.

wt-PKR [2] = target: T2, wt-PKR (Homo sapiens, UniProt P30613); assay: Enzyme assay, kinetic parameters (Vmax, PEP Km)
Protocol: as §1

PKR-R510Q [3] = target: T1, PKR-R510Q; assay: Enzyme assay, activation at different compound concentrations (rate of ATP formation); settings: PEP concentrations at or below Km
wt-PKR [4] = target: T2, wt-PKR; assay: as above; settings: PEP concentrations at or below Km
[5] = 2 μM Compound 1, in the presence or absence of FBP
[6] = 2 μM Compound 1, presence and absence of FBP

T1 sequence (P30613 whole entry R510Q): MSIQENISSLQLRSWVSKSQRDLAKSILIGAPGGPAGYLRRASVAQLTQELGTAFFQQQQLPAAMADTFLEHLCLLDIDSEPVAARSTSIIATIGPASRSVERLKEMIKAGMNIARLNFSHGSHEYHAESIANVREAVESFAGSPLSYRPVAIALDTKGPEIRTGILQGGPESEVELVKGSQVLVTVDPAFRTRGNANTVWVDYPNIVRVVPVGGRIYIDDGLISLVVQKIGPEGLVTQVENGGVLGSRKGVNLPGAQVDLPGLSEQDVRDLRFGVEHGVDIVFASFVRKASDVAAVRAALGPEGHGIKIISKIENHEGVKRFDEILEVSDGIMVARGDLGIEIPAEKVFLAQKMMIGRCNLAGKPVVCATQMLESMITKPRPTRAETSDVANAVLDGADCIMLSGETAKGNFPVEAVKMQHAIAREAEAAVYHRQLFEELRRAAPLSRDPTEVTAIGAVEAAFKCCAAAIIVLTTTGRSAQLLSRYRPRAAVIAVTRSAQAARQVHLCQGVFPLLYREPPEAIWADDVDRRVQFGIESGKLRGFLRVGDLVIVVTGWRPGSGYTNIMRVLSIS
T2 sequence (P30613 whole entry): as the sequence (P30613 whole entry R510Q) above, with Q510R counted along it

reduction of PEP Km (PKR-R510Q [1]; [5]): ~2 fold
effect on Vmax (PKR-R510Q [1]; [6]): no effect to a modest increase
reduction of PEP Km (wt-PKR [2]; [5]): ~2 fold
effect on Vmax (wt-PKR [2]; [6]): no effect to a modest increase
Maximum-fold Activation (PKR-R510Q [3]): <3.0 fold
Maximum-fold Activation (wt-PKR [4]): <2.0 fold
SMILES: O=C([C@H](CO)c1ccccc1)N1CC2=C(C1)CN(S(=O)(=O)c1cnc3c(c1)OCCO3)C2 (single isomer, unassigned) [Compound 1]
